# Reference: patent US20240199618A1, “NOVEL N-ACYL-[3-SUBSTITUTED]-[8-SUBSTITUTED]-5,6-DIHYDRO-[1,2,4]TRIAZOLO[4,3-a]PYRAZINES AS SELECTIVE NK-3 RECEPTOR ANTAGONISTS, PHARMACEUTICAL COMPOSITION, METHODS FOR USE IN NK-3 RECEPTOR-MEDIATED DISORDERS” (Ogeda SA, priority 2013, published 2024)
# Like-named read-outs stand apart in the source and are kept apart here.
# Assays:
# human NK-2 receptor = human NK-2 receptor (Homo sapiens (Human), UniProt P21452); test: Selectivity assay: [125I]-Neurokinin A binding, human NK-2 receptor; conditions: 0.1 nM [125I]-Neurokinin A, CHO membranes; read-out: hNK-2 (Ki)
# Procedure: The affinity of compounds of the invention for the NK-2 receptor was evaluated in CHO recombinant cells which express the human NK-2 receptor. Membrane suspensions were prepared from these cells. […] Binding assays were performed in a 25 mM HEPES/1 mM CaCl2)/5 mM MgCl2/0.5% BSA/10 μg/ml saponin, at pH 7.4. […] The radioactivity retained on the filters was measured by using the TopCount-NXT reader (Packard).
# [1] = test system: circulating levels of luteinizing hormone (LH); test: Castrated male rat model, circulating luteinizing hormone (LH); format: in vivo; conditions: single oral dose less than or equal to 30 mg/kg, p<0.05
# Procedure: Castrated Male Rat Model to Assess the Effect of Compound of Invention on Circulating Levels of Luteinizing Hormone (LH)
# The effect of compounds of the invention to inhibit luteinizing hormone (LH) secretion is determined by the following biological studies.
# In humans and rodents, castration is well-precedented to permit heightened, persistent GnRH signaling and consequent elevation of circulating LH. Thus, a castrated rat model is used to provide a broad index for measurement of LH inhibition as a marker of test compound inhibition of the GnRH signaling pathway.
# Castrated adult male Sprague-Dawley (SD) rats (150-175 g,) were purchased from Janvier (St Berthevin, France). All animals were housed 2 per cage in a temperature-controlled room (22±2° C.) and 50±5% relative humidity with a 12 hour/12 hour light/dark cycles (lights off at […]). The animals were allowed 3 weeks of postoperative recovery prior to study. Animals were handled on a daily basis. Standard diet and tap water were provided ad libitum. Animal cage litters were changed once a week. On the study day, animals were acclimated to the procedure room for a period of one hour prior to the initiation of the experiment.
# Compounds of the invention were formulated in 0.5% methyl cellulose.
# After basal sampling (TO) a single dose of compounds of the invention or vehicle was administrated orally to rats. Blood samples were then collected at several time points post dosing (45, 90, 150, 300 and 420 minutes). Blood samples were obtained via tail vein bleed, drawn into EDTA-containing tubes and centrifuged immediately. Plasma samples were collected and stored in a −80° C. freezer until assayed. Serum LH levels were determined using radioimmunoassay kit from RIAZEN—Rat L H, Zentech (Liege, Belgium). Baseline was defined as the initial basal blood sample.
# human NK-3 receptor [2] = molecular target: T1, human NK-3 receptor (Homo sapiens (Human), UniProt P29371); test: 3H-SB222200 binding competition assay with human NK-3 receptor
# Summary of the method: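 Membranes from CHO cells stably expressing the receptor were incubated with 5 nM 3H-SB222200 and varying compound concentrations in HEPES 25 mM/NaCl 0.1 M/CaCl2 1 mM/MgCl2 5 mM/BSA 0.5%/saponin 10 μg/ml, pH 7.4. Bound radioligand was quantified as membrane-associated radioactivity after filtration.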
# human NK-1 receptor = human NK-1 receptor (Homo sapiens (Human), UniProt P25103); test: Selectivity assay: [3H] substance P binding, human NK-1 receptor; conditions: 2 nM [3H] substance P, CHO membranes; read-out: hNK-1 (Ki)
# Summary of the method: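 Competition binding on membranes from CHO cells expressing human NK-1 receptor, using 2 nM [3H] substance P in 50 mM Tris/5 mM MnCl2/150 mM NaCl/0.1% BSA, pH 7.4, with increasing compound concentrations. Incubated 60 min at 25 °C; bound radioactivity measured after filtration.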
# human NK-3 receptor [3] = molecular target: T1, human NK-3 receptor; test: Aequorin functional assay with human NK-3 receptor (antagonist testing vs NKA); format: cell-based; conditions: CHO cells, NKA at EC80 (3 nM); read-out: Functional assay: Aequorin assay with human NK-3 receptor hNK-3-AEQ (antagonist IC50)
# Summary of the method: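 CHO cells co-expressing human NK-3 receptor and apoaequorin were pre-incubated 3 min with compound, then challenged with NKA at EC80 (3 nM). Coelenterazine-dependent luminescence was integrated over 90 s, and antagonism was derived from concentration-dependent inhibition of the calcium response.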
# plasma protein = test: Determination of plasma protein binding (equilibrium dialysis, RED); format: in vitro ADME; conditions: 4 hours at 37° C.
# [4] = Table 2, 5 nM 3H-SB222200, CHO membranes, read-out: Competitive binding assay with human NK-3 receptor hNK-3 (Ki)
# [5] = Table 3 (selectivity table), read-out: hNK-3 (Ki)
# human NK-1 receptor, sequence (P25103 whole entry): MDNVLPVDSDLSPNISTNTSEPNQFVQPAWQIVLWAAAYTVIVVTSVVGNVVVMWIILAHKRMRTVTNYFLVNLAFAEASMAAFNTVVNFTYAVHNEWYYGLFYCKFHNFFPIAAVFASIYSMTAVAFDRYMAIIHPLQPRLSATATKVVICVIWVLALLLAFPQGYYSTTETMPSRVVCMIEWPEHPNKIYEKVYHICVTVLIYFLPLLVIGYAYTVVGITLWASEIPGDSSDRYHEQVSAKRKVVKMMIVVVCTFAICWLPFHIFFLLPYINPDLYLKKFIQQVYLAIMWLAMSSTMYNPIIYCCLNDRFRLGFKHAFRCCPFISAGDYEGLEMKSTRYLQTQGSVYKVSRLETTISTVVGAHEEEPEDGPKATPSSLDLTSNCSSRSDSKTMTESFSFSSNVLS
# human NK-2 receptor, sequence (P21452 whole entry): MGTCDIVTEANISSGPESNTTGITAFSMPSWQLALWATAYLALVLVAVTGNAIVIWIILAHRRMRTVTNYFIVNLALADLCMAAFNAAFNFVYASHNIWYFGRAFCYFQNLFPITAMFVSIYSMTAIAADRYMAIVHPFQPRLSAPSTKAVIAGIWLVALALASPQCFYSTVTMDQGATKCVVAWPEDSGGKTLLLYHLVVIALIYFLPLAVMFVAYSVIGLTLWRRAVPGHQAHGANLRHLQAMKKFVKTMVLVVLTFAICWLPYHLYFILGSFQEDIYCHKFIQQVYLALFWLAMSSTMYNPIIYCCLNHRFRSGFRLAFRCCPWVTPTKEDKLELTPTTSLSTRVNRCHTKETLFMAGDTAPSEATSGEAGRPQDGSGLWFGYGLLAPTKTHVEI
# T1 sequence (P29371 whole entry): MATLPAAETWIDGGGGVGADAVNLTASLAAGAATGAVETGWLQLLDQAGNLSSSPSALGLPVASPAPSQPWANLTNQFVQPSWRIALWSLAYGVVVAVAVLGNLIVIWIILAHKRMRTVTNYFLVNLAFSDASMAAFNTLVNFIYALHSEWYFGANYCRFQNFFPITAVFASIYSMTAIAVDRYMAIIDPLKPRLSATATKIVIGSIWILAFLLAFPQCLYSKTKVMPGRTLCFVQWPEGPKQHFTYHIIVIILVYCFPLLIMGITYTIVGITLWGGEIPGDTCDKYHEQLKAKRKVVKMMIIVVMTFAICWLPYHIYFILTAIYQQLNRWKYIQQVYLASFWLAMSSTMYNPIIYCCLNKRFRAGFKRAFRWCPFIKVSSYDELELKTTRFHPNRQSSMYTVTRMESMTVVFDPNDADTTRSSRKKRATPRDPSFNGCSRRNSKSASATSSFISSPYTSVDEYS
Ki (human NK-2 receptor) [nM],Ki (human NK-3 receptor [2]; [4]) [nM],Ki (human NK-3 receptor [2]; [5]) [nM],Ki (human NK-1 receptor) [nM],IC50 (human NK-3 receptor [3]) [nM],"Exposure (% rPPB), bound drug fraction to plasma protein (plasma protein) [%]",SMILES,circulating LH levels [1]
23000,20,20,19900,19,40,"Cc1nsc(-c2nnc3n2CCN(C(=O)c2ccc(Cl)c(F)c2)[C@@H]3C)n1 [Compound 4, (R)-(4-chloro-3-fluorophenyl)(8-methyl-3-(3-methyl-1,2,4-thiadiazol-5-yl)-5,6-dihydro-[1,2,4]triazolo[4,3-a]pyrazin-7(8H)-yl)methanone]",significantly suppressed
> 30000,26,26,> 30000,33,29,"Cc1nsc(-c2nnc3n2CCN(C(=O)c2ccc(F)c(F)c2F)[C@@H]3C)n1 [Compound 8, (R)-(8-methyl-3-(3-methyl-1,2,4-thiadiazol-5-yl)-5,6-dihydro-[1,2,4]triazolo[4,3-a]pyrazin-7(8H)-yl)(2,3,4-trifluorophenyl)methanone]",significantly suppressed
> 30000,30,30,> 30000,21,22,"Cc1nsc(-c2nnc3n2CCN(C(=O)c2ccc(F)c(F)c2)[C@@H]3C)n1 [Compound 9, (R)-(3,4-difluorophenyl)(8-methyl-3-(3-methyl-1,2,4-thiadiazol-5-yl)-5,6-dihydro-[1,2,4]triazolo[4,3-a]pyrazin-7(8H)-yl)methanone]",significantly suppressed
> 30000,40,40,> 30000,44,37,"CCc1noc(-c2nnc3n2CCN(C(=O)c2ccc(F)cc2)[C@@H]3C)n1 [Compound 13, (R)-(3-(3-ethyl-1,2,4-oxadiazol-5-yl)-8-methyl-5,6-dihydro-[1,2,4]triazolo[4,3-a]pyrazin-7(8H)-yl)(4-fluorophenyl)methanone]",significantly suppressed
